“And” between values parts separate entries of the source, which are not always exact repeats. Equal entries are not always repeated. Inconclusive results and toxic doses are left out.
System: BDF1 mice, L1210 leukemia sc, survival T/C
Test: NCI In Vivo Anticancer Drug Screen. Data for tumor model L1210 Leukemia (subcutaneous) in B6D2F1 (BDF1) mice
Conditions: higher = longer survival
Description: The antitumor activity of compounds was measured in mice bearing transplantable tumors. Survival or tumor size were measured and the results are expressed as the measurement made in the treated group (T) divided by the measurement made in the vehicle treated control group (C). The tumor model used in this assay is L1210 Leukemia (subcutaneous) in B6D2F1 (BDF1) mice

[1] = endpoint: median survival time, dose: 23.0 mg/kg/injection, schedule: Q01DX Z (sc), vehicle: saline

COc1cc2cc3c4cc(OC)c(OC)cc4cc[n+]3c(C)c2cc1OC
T/C (endpoint: median survival time, dose: 100.0 mg/kg/injection, schedule: Q01DX009 (sc), vehicle: saline): 97 % of control and 100 % of control
T/C (endpoint: median survival time, dose: 200.0 mg/kg/injection, schedule: Q01DX009 (sc), vehicle: saline): 97 % of control and 100 % of control
T/C (endpoint: median survival time, dose: 400.0 mg/kg/injection, schedule: Q01DX009 (sc), vehicle: saline): 99 % of control and 100 % of control
T/C (endpoint: median survival time, dose: 800.0 mg/kg/injection, schedule: Q01DX009 (sc), vehicle: saline): 100 % of control and 101 % of control
T/C (endpoint: median survival time, dose: 1600.0 mg/kg/injection, schedule: Q01DX009 (sc), vehicle: saline): 97 % of control and 100 % of control

C=CC(COC(C)=O)N1CC1 (stereo unspecified)
T/C (endpoint: median survival time, dose: 4.7 mg/kg/injection, schedule: Q01DX Z (sc), vehicle: saline): 100 % of control
T/C (endpoint: median survival time, dose: 7.8 mg/kg/injection, schedule: Q01DX Z (sc), vehicle: saline): 100 % of control
T/C (endpoint: median survival time, dose: 13.0 mg/kg/injection, schedule: Q01DX Z (sc), vehicle: saline): 100 % of control
T/C (endpoint: median survival time, dose: 36.0 mg/kg/injection, schedule: Q01DX Z (sc), vehicle: saline): 100 % of control
T/C (endpoint: median survival time, dose: 60.0 mg/kg/injection, schedule: Q01DX Z (sc), vehicle: saline): 100 % of control

CS(=O)(=O)Nc1ccc(Nc2c3ccccc3nc3cc(Cl)ccc23)cc1
T/C (endpoint: mean survival time, dose: 10.0 mg/kg/injection, schedule: Q01DX009 (sc), vehicle: saline): 104 % of control
T/C (endpoint: mean survival time, dose: 20.0 mg/kg/injection, schedule: Q01DX009 (sc), vehicle: saline): 112 % of control
T/C (endpoint: mean survival time, dose: 40.0 mg/kg/injection, schedule: Q01DX009 (sc), vehicle: saline): 113 % of control
T/C (endpoint: mean survival time, dose: 80.0 mg/kg/injection, schedule: Q01DX009 (sc), vehicle: saline): 124 % of control

CCC(=O)NC1=C(N2CC2)C(=O)C(NC(=O)CC)=C(N2CC2)C1=O
T/C (endpoint: median survival time, dose: 1.08 mg/kg/injection, schedule: Q01DX Z (sc), vehicle: methylcellulose (MC)): 110 % of control
T/C (endpoint: median survival time, dose: 1.8 mg/kg/injection, schedule: Q01DX Z (sc), vehicle: methylcellulose (MC)): 110 % of control

C=CCCCCCCCCC(C)(N)C(=O)O (stereo unspecified)
T/C (endpoint: median survival time, dose: 14.0 mg/kg/injection, schedule: Q01DX Z (sc), vehicle: methylcellulose (MC)): 100 % of control
T/C (endpoint: median survival time, dose: 23.0 mg/kg/injection, schedule: Q01DX Z (sc), vehicle: methylcellulose (MC)): 90 % of control
T/C (endpoint: median survival time, dose: 39.0 mg/kg/injection, schedule: Q01DX Z (sc), vehicle: methylcellulose (MC)): 90 % of control
T/C (endpoint: median survival time, dose: 65.0 mg/kg/injection, schedule: Q01DX Z (sc), vehicle: methylcellulose (MC)): 95 % of control
T/C (endpoint: median survival time, dose: 108.0 mg/kg/injection, schedule: Q01DX Z (sc), vehicle: methylcellulose (MC)): 95 % of control
T/C (endpoint: median survival time, dose: 180.0 mg/kg/injection, schedule: Q01DX Z (sc), vehicle: methylcellulose (MC)): 100 % of control
T/C (endpoint: median survival time, dose: 300.0 mg/kg/injection, schedule: Q01DX Z (sc), vehicle: methylcellulose (MC)): 95 % of control

O=C(Nc1ccc(NC(=O)Nc2cccc(C3=NCCN3)c2)cc1)Nc1cccc(C2=NCCN2)c1
T/C [1]: 100 % of control
T/C (endpoint: median survival time, dose: 39.0 mg/kg/injection, schedule: Q01DX Z (sc), vehicle: saline): 110 % of control
T/C (endpoint: median survival time, dose: 65.0 mg/kg/injection, schedule: Q01DX Z (sc), vehicle: saline): 100 % of control
T/C (endpoint: median survival time, dose: 108.0 mg/kg/injection, schedule: Q01DX Z (sc), vehicle: saline): 95 % of control
T/C (endpoint: median survival time, dose: 180.0 mg/kg/injection, schedule: Q01DX Z (sc), vehicle: saline): 100 % of control
T/C (endpoint: median survival time, dose: 300.0 mg/kg/injection, schedule: Q01DX Z (sc), vehicle: saline): 100 % of control

S=P(N1CC1)(N1CC1)N1CC1
T/C (endpoint: median survival time, dose: 1.08 mg/kg/injection, schedule: Q01DX Z (sc), vehicle: saline): 110 % of control
T/C (endpoint: median survival time, dose: 1.5 mg/kg/injection, schedule: Q01DX009 (ip), vehicle: water): 113 % of control
T/C (endpoint: median survival time, dose: 1.5 mg/kg/injection, schedule: Q01DX009 (sc), vehicle: water): 105 % of control
T/C (endpoint: median survival time, dose: 1.8 mg/kg/injection, schedule: Q01DX Z (sc), vehicle: saline): 100 % of control and 110 % of control
T/C (endpoint: median survival time, dose: 3.0 mg/kg/injection, schedule: Q01DX Z (sc), vehicle: saline): 112 % of control
T/C (endpoint: median survival time, dose: 5.0 mg/kg/injection, schedule: Q01DX Z (sc), vehicle: saline): 156 % of control
T/C (endpoint: median survival time, dose: 6.0 mg/kg/injection, schedule: Q01DX009 (ip), vehicle: water): 94 % of control
T/C (endpoint: median survival time, dose: 6.0 mg/kg/injection, schedule: Q01DX009 (sc), vehicle: water): 169 % of control
T/C (endpoint: median survival time, dose: 8.4 mg/kg/injection, schedule: Q01DX Z (sc), vehicle: saline): 170 % of control
T/C (endpoint: median survival time, dose: 12.0 mg/kg/injection, schedule: Q01DX009 (sc), vehicle: water): 86 % of control
T/C (endpoint: median survival time, dose: 14.0 mg/kg/injection, schedule: Q01DX Z (sc), vehicle: saline): 120 % of control
T/C [1]: 104 % of control and 120 % of control

CCN(CC)C(=O)c1cccnc1
T/C (endpoint: median survival time, dose: 28.0 mg/kg/injection, schedule: Q01DX Z (sc), vehicle: water): 109 % of control
T/C (endpoint: median survival time, dose: 46.7 mg/kg/injection, schedule: Q01DX Z (sc), vehicle: water): 100 % of control
T/C (endpoint: median survival time, dose: 77.8 mg/kg/injection, schedule: Q01DX Z (sc), vehicle: water): 100 % of control
T/C (endpoint: median survival time, dose: 130.0 mg/kg/injection, schedule: Q01DX Z (sc), vehicle: water): 100 % of control
T/C (endpoint: median survival time, dose: 216.0 mg/kg/injection, schedule: Q01DX Z (sc), vehicle: water): 100 % of control
